Data from EP4772530A1, “PEPTIDE TARGETING SOMATOSTATIN RECEPTOR, DRUG CONJUGATE AND USE THEREOF” (Mainline Biosciences (Shanghai) Co., Ltd., priority 2023, dated 2025).

System: HL-60
Experiment: Cell killing in HL-60 by CCK-8
Assay type: cell-based
Conditions: HL-60, 48 h
Protocol: • a) Cell line: HL-60 • b) Procedure • (1) Normally cultured HL-60 cells in the logarithmic growth phase were centrifuged at 800 rpm for 5 min to discard the supernatant. Approximately 3 mL of normal medium was added to resuspend the cell pellet by gently pipetting up and down. The cells were then counted using a cell counter and inoculated onto a 96-well plate. • (2) Sample solutions with different concentration gradients were prepared. Approximately 10 µL of each solution was added to the 96-well plate, with 3 to 6 replicate wells for each concentration, and incubated in a 5% CO2 incubator at 37°C for 48 h. • (3) CCK-8 was equilibrated to room temperature before use, and 10 µL of CCK-8 solution was added to each well. • (4) The plate was incubated in the incubator for 0.5-4 h in the dark, with the incubation time depending on experimental conditions such as cell type and density. • (5) The absorbance was measured at 450 nm using a microplate reader. • c) Data analysis Cell viability = [(As−Ab)/(Ac−Ab)] × 100% [formula] Inhibition% = [(Ac−As)/(Ac−Ab)] × 100% [formula] • As: absorbance of sample well (containing cells + medium + CCK-8 solution + drug solution); • Ac: absorbance of control well (containing cells + medium + CCK-8 solution); • Ab: absorbance of blank well (containing medium + CCK-8 solution); • The results were processed and analyzed using Excel and Graphpad Prism to obtain the IC50. Table 4: Test Results of Cell Killing in HL-60 for 48 h

CC[C@H](C)[C@@H]([C@@H](CC(=O)N1CCC[C@H]1[C@H](OC)[C@@H](C)C(=O)N[C@H](C)[C@@H](O)c1ccccc1)OC)N(C)C(=O)[C@@H](NC(=O)[C@H](C(C)C)N(C)C(=O)OCc1ccc(NC(=O)[C@H](CCCNC(N)=O)NC(=O)[C@@H](NC(=O)CCCCCN2C(=O)CC(SC[C@H](NC(C)=O)C(=O)NCCOCCOCC(=O)N[C@@H](CCCNC(=N)N)C(=O)N[C@@H](CCCNC(=N)N)C(=O)N[C@@H](CC(C)C)C(=O)N[C@@H](Cc3ccccc3)C(=O)N[C@H]3CSSC[C@@H](C(=O)N[C@H](C(=O)N[C@@H](Cc4c[nH]c5ccccc45)C(=O)N[C@@H](CCCNC(=N)N)C(=O)N[C@@H](CC(=O)O)C(N)=O)[C@@H](C)O)NC(=O)[C@H]([C@@H](C)O)NC(=O)[C@H](CCCCN)NC(=O)[C@@H](Cc4c[nH]c5ccccc45)NC(=O)[C@H](Cc4ccc(O)cc4)NC3=O)C2=O)C(C)C)cc1)C(C)C (stereo partly drawn) [Example 1, Cys(MC-Val-Cit-PABC-MMAE)-AEEA-Arg-Arg-Leu-Phe-[Cys-Tyr-D-Trp-Lys-Thr-Cys]-Thr-Trp-Arg-Asp-NH2]
Bottom (Inhibition at Lowest Point): 1.71
Top (Inhibition at Highest Point): 86.42
